Here are results for 3 molecules from EP0686394A1, “Use of N-[[5-(naphthales-1-yl)-1,3-dioxan-2-yl]alkyl]acetamide derivatives for the preparation of medicaments for use in the treatment of neurodegenerative disorders” (SYNTHELABO, priority 1994, dated 1995).

The subject of test [1] is ischémie cérébrale globale chez la souris. Description: global cerebral ischemia test in mice (cardiac arrest induced by intravenous magnesium chloride; survival time). It counts as in vivo. The following applies: Mus musculus, read-out: dose efficace 3 secondes (DE3sec). From the text: Ainsi les composés utilisables selon l'invention ont été soumis au test de l'ischémie cérébrale globale chez la souris. L'ischémie est due à un arrêt cardiaque induit par une injection intraveineuse rapide de chlorure de magnésium. Dans ce test on mesure le "temps de survie", c'est-à-dire l'intervalle entre le moment de l'injection de chlorure de magnésium et le dernier mouvement respiratoire observable de chaque souris. Ce dernier mouvement est considéré comme l'indice ultime d'une fonction du système nerveux central. L'arrêt respiratoire apparaît approximativement 21 secondes après l'injection de chlorure de magnésium. Des souris mâles (SWISS OF₁ IFFA CREDO) sont étudiées par groupes de 10. Elles sont nourries et abreuvées ad libitum avant les essais. Le temps de survie est mesuré 10 minutes après l'administration intrapéritonéale ou 5 minutes après l'administration intraveineuse dans la veine caudale, des composés de formule (I). Les résultats sont donnés sous la forme de la différence entre le temps de survie mesuré dans un groupe de 10 souris ayant reçu le composé et le temps de survie mesuré dans un groupe de 10 souris ayant reçu le liquide véhicule. Les rapports entre le temps de survie et la dose du composé sont enregistrés graphiquement selon une courbe semilogarithmique. Cette courbe permet le calcul de la "dose efficace 3 secondes" (DE3sec), c'est-à-dire la dose (en mg/kg) qui produit une augmentation de 3 secondes du temps de survie par rapport au groupe témoin de 10 souris traitées par le véhicule. Une augmentation de 3 secondes du temps de survie est à la fois significative statistiquement et reproductible. A titre d'exemple, après injection par voie intrapéritonéale, la DE3sec du trans-N-[3-[5-(6-méthoxynaphtalén-1-yl)-1,3-dioxan-2-yl]propyl]acétamide dans ce test est de 11,4 mg/kg, la DE3sec du cis-N-[3-[5-(6-méthoxynaphtalén-1-yl)-1,3-dioxan-2-yl]propyl]acétamide dans ce test est de 6,1 mg/kg et la DE3sec du trans-N-[3-[5-[6-(cyclopropylméthoxy)naphtalén-1-yl]-1,3-dioxan-2-yl]propyl]acétamide dans ce test est de 6,1 mg/kg. Par voie intraveineuse, après solubilisation dans une solution de 2-hydroxypropyl-β-cyclodextrine, la DE3sec du trans-N-[3-[5-(6-méthoxynaphtalén-1-yl)-1,3-dioxan-2-yl]propyl]acétamide dans ce test est de 2,25 mg/kg.

The test system of test [2] is ischémie focale permanente par occlusion intraluminale de l'artère cérébrale moyenne chez le rat. Description: permanent focal ischemia model by intraluminal occlusion of the middle cerebral artery in the rat (infarct volume). The following applies: 1 mg/kg intraperitoneal, given 10 minutes, 2 h 30 and 5 h after occlusion; infarct volume evaluated 24 h after occlusion. The test is classed as in vivo. The text has this: L'activité neuroprotectrice des composés de formule (I) a été également démontrée dans un modèle d'ischémie focale permanente par occlusion intraluminale de l'artère cérébrale moyenne chez le rat, selon une méthode analogue à celle décrite dans Stroke, 20, 84-91 (1989). Sous anesthésie au méthohexital sodique, on ligature l'artère ptérygopalatine, l'artère carotidienne commune et l'artère carotidienne externe gauche; on introduit un fil de nylon dans l'artère carotidienne interne sur une longueur d'environ 18 mm correspondant à la distance qui sépare la naissance de l'artère carotidienne interne de celle de l'artère cérébrale moyenne. Les composés sont administrés 10 minutes, 2 heures 30 et 5 heures après l'occlusion, aux doses de 0,3; 1; 3 et 10 mg/kg par voie intrapéritonéale. 24 heures après l'occlusion de l'artère cérébrale moyenne, on sacrifie les animaux et on prélève le cerveau. On évalue le volume de l'infarctus cérébral à partir de la mesure de la surface de la nécrose sur 6 coupes coronales colorées par le chlorure de 2,3,5-triphényltétrazolium. A titre d'exemple le trans-N-[3-[5-(6-méthoxynaphtalén-1-yl)-1,3-dioxan-2-yl]propyl]acétamide réduit le volume de l'infarctus cérébral d'environ 30% à la dose de 1 mg/kg.

Setting [3] is: ip, 10 min, intraperitoneal injection, survival time measured 10 minutes after administration, dose giving a 3 second increase of survival time vs vehicle group.

Structures are written as SMILES. Where two headings read alike, the source gives them in different places.

Take `COc1ccc2c(cccc2[C@H]2CO[C@@H](CCCNC(C)=O)OC2)c1` [cis-N-[3-[5-(6-méthoxynaphtalén-1-yl)-1,3-dioxan-2-yl]propyl]acétamide]: the ED (3 s increase of survival time) in test [1] (setting [3]) stood at 6.1 mg/kg. For the molecule `COc1ccc2c(cccc2[C@H]2CO[C@H](CCCNC(C)=O)OC2)c1` [trans-N-[3-[5-(6-méthoxynaphtalén-1-yl)-1,3-dioxan-2-yl]propyl]acétamide], the ED (3 s increase of survival time) is 2.25 mg/kg in test [1] (5 min, intravenous route, solubilised in 2-hydroxypropyl-β-cyclodextrine solution, survival time measured 5 minutes after administration) and 11.4 mg/kg in test [1] (setting [3]). In addition, the “réduit le volume de l'infarctus cérébral” value in test [2] is reported as ~30%.

Regarding `CC(=O)NCCC[C@H]1OC[C@H](c2cccc3cc(OCC4CC4)ccc32)CO1` [trans-N-[3-[5-[6-(cyclopropylméthoxy)naphtalén-1-yl]-1,3-dioxan-2-yl]propyl]acétamide], the ED (3 s increase of survival time) in test [1] (setting [3]) worked out at 6.1 mg/kg.
